Measured values as given in the supplement of paper PMC10307832.

Experiments:
Assay in all cases: relative viability (nuclei count vs DMSO), 5 days (fraction); higher = more cells survive
[1] = compound: CC(C)C[C@H](NC(=O)[C@H](Cc1ccccc1)NC(=O)c1cnccn1)B(O)O [Bortezomib] + O=C(c1cc(Cc2n[nH]c(=O)c3ccccc23)ccc1F)N1CCN(C(=O)C2CC2)CC1 [Olaparib] (partner 8 µM)
Summary of the method: (§1)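 Relative viability divides the nuclei count in treated wells by that in vehicle wells. Lung cancer cell lines were seeded in 1536-well plates, dosed by pin tool the next day, and fixed and stained after 5 days in one step with final 0.05% Triton X-100, 1% formaldehyde and 1 ug/ml Hoechst. Dosing was a single drug or a fixed anchor-drug dose plus five library-drug doses (not always all listed) in √10 steps, and values are medians of duplicate plates imaged at 4×.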

[2] = compound: CC(C)C[C@H](NC(=O)[C@H](Cc1ccccc1)NC(=O)c1cnccn1)B(O)O [Bortezomib] + C[C@]1(O)C[C@@H](c2nc(-c3ccc4ccc(-c5ccccc5)nc4c3)c3c(N)nccn32)C1 [Linsitinib] (partner 1 µM)
Summary of the method: as §1

[3] = compound: CC1=CC(=NN1)NC2=CC(=NC(=N2)/C=C/C3=CC=CC=C3)N4CCN(CC4)C + C[C@]1(O)C[C@@H](c2nc(-c3ccc4ccc(-c5ccccc5)nc4c3)c3c(N)nccn32)C1 [Linsitinib] (partner 1 µM)
Summary of the method: as §1

[4] = compound: COC1=CC(c2cc3ccccc3[nH]2)=N/C1=C\c1[nH]c(C)cc1C [Obatoclax] + C[C@]1(O)C[C@@H](c2nc(-c3ccc4ccc(-c5ccccc5)nc4c3)c3c(N)nccn32)C1 [Linsitinib] (partner 1 µM)
Summary of the method: as §1

Cell Line | relative viability ([1]; first compound 0.0002 µM) | relative viability ([1]; first compound 0.000632 µM) | relative viability ([1]; first compound 0.002 µM) | relative viability ([1]; first compound 0.006325 µM) | relative viability ([1]; first compound 0.02 µM) | relative viability ([2]; first compound 0.0002 µM) | relative viability ([2]; first compound 0.000632 µM) | relative viability ([2]; first compound 0.002 µM) | relative viability ([2]; first compound 0.006325 µM) | relative viability ([2]; first compound 0.02 µM) | relative viability ([3]; first compound 0.08 µM) | relative viability ([3]; first compound 0.253 µM) | relative viability ([3]; first compound 0.8 µM) | relative viability ([3]; first compound 2.53 µM) | relative viability ([3]; first compound 8 µM) | relative viability ([4]; first compound 0.01 µM) | relative viability ([4]; first compound 0.03162 µM) | relative viability ([4]; first compound 0.1 µM) | relative viability ([4]; first compound 0.3162 µM) | relative viability ([4]; first compound 1 µM)
NCI-H2342 | 0.514 | 0.503 | 0.382 | 0.473 | 0.273 |  |  |  |  |  |  |  |  |  |  |  |  |  |  | 
HCC-827 | 0.725 | 0.611 | 0.357 | 0.14 | 0.138 | 0.913 | 0.949 | 0.821 | 0.896 | 0.141 | 0.955 | 1.06 | 0.932 | 0.814 | 0.635 | 0.904 | 1.01 | 0.895 | 0.866 | 0.914
NCI-H322M | 0.755 | 0.704 | 0.825 | 0.586 | 0.452 | 0.906 |  | 0.999 | 0.831 | 0.294 | 0.89 | 0.965 | 0.895 | 0.515 | 0.323 | 0.943 | 0.958 | 0.941 | 0.893 | 0.89
ChaGo-K-1 | 0.387 | 0.385 | 0.432 | 0.151 | 0.115 |  |  |  |  |  |  |  |  |  |  |  |  |  |  | 
BEN | 1.15 | 0.921 | 0.845 | 0.742 | 0.218 | 0.814 | 0.927 | 0.763 | 0.592 | 0.173 | 0.953 | 0.955 | 0.96 | 0.76 | 0.194 | 0.948 | 0.828 | 0.913 | 0.948 | 0.796
